Measurements as given in PMC10489911 (2023).

Columns and labels:
[1] = test system: AG3(T2AG3)3 (G4-Tel, telomeric G4) (DNA, G4) AGGGTTAGGGTTAGGGTTAGGG; test: UV-Vis titration; details: K+ 100 mM KCl, plus potassium phosphate, 20 mM phosphate, pH 6.8, ligand 2 μM
[2] = test system: AG3(T2AG3)3 (G4-Tel, telomeric G4) (DNA, G4) AGGGTTAGGGTTAGGGTTAGGG; test: CD melting at 295 nm; details: K+ 100 mM KCl, plus potassium phosphate; 20 mM phosphate, pH 6.8; 2 equivalents of ligand; Tm 56.1 alone
[3] = test system: AG3(T2AG3)3 (G4-Tel, telomeric G4) (DNA, G4) AGGGTTAGGGTTAGGGTTAGGG; test: G4-FID fluorescence displacement; details: K+ 100 mM KCl, plus potassium phosphate, PBS pH 6.8, 25 °C, thiazole orange displaced

| Kb ([1]; ligand aggregates in buffer) | ΔTm [2] | DC50 ([3]; text prints 1.04) | DC50 [3] | Kb [1] | DC50 ([3]; table prints 0.90 ± 0.04, its ratio 2.01 fits 0.99) | SMILES |
| --- | --- | --- | --- | --- | --- | --- |
| 3.71 ± 1.28 × 10^6 M^−1 | 8.5 °C | 1.02 ± 0.06 µM | – | – | – | C[n+]1ccc(-c2cc3c(cc2-c2cc[n+](C)cc2)-c2nc-3c(-c3ccccc3)c3ccc([n-]3)c(-c3ccccc3)c3nc(c(-c4ccccc4)c4ccc([n-]4)c2-c2ccccc2)-c2cc(-c4cc[n+](C)cc4)c(-c4cc[n+](C)cc4)cc2-3)cc1.[Ni+2] |
| 7.05 ± 1.31 × 10^6 M^−1 | 7.4 °C | – | 0.42 ± 0.08 µM | – | – | C[n+]1ccc(-c2cc3c(cc2-c2cc[n+](C)cc2)-c2nc-3c(-c3ccccc3)c3ccc([n-]3)c(-c3ccccc3)c3nc(c(-c4ccccc4)c4ccc([n-]4)c2-c2ccccc2)-c2cc(-c4cc[n+](C)cc4)c(-c4cc[n+](C)cc4)cc2-3)cc1.[Zn+2] |
| – | 2.3 °C | – | – | 6.01 ± 1.11 × 10^6 M^−1 | 0.99 µM | C[n+]1ccc(-c2cc3c(cc2-c2cc[n+](C)cc2)-c2nc-3c(-c3ccccc3)c3ccc([nH]3)c(-c3ccccc3)c3nc(c(-c4ccccc4)c4ccc([nH]4)c2-c2ccccc2)-c2cc(-c4cc[n+](C)cc4)c(-c4cc[n+](C)cc4)cc2-3)cc1 |
